Measured values as given in patent US4419123A, “Herbicidal 4-trifluoromethyl-3'-carbon-substituted-4'-substituted diphenyl ethers” (Rohm and Haas Company, priority 1981, dated 1983).

Legend:
[1] = Preemergence herbicidal activity (% control) against monocot weeds; format: in vivo; settings: pre-emergence, 336 h, average, about two weeks after application, read-out: Herbicidal activity (% control), preemergence, monocots; for activity at 2241.7 g/ha: 2 lb./A.; for activity at 4483.4 g/ha: 4 lb./A.
Source text: (§1) barnyardgrass (Echinochloa crusgalli) crabgrass (Digitaria spp.) nutsedge (Cyperus esculentus)
(§2) At 2 and 4 pounds per acre:
(§3) **Bermudagrass (Cynodon dactylon)
(§4) *downy brome (Bromus tectorum) foxtail (Setaria faberii)
(§5) Johnsongrass (Sorghum halepense) […]
(§6) quackgrass (Agropyron repens)
(§7) *ryegrass (Lolium perenne)
(§8) *wild oats (Avena factua)
(§9) *yellow millet (Panicum miliaceum)
(§10) The following test procedure is employed.

[2] = Postemergence herbicidal activity (% control) against monocot weeds; format: in vivo; settings: post-emergence, 336 h, average, about two weeks after application, read-out: Herbicidal activity (% control), postemergence, monocots; for activity at 2241.7 g/ha: 2 lb./A.; for activity at 4483.4 g/ha: 4 lb./A.
Source text: as §1, §2, §3, §4, §5, §6, §7, §8, §9, §10

[3] = tested on: rice; assay: Crop tolerance (selective herbicidal activity), rice; format: in vivo; settings: postemergence applications or applications on transplanted rice
Description: as §10
(§11) Following the general test procedure of Example 37, diphenyl ethers are evaluated for significant tolerance (as shown by 50% or less kill of the test crop at levels of application which give more than 50% kill of many or all of the weeds of Example 73) towards some or all of the following common agronomic crops (not all compounds tested against all crops): alfalfa, snapbeans, corn, cotton, cucumbers, peanuts, rape, rice, safflower, soybeans, tomatoes, and wheat.

[4] = Postemergence herbicidal activity (% control) against dicot weeds; settings: post-emergence, 336 h
[5] = Preemergence herbicidal activity (% control) against dicot weeds; settings: pre-emergence, 336 h
[6] = tested on: peanuts; assay: Crop tolerance (selective herbicidal activity), peanuts; format: in vivo; settings: postemergence applications
Description: as §10, §11

[7] = read-out: Herbicidal activity (% control), postemergence, dicots, 2 lb./A., average, about two weeks after application
[8] = read-out: Herbicidal activity (% control), postemergence, dicots, 4 lb./A., average, about two weeks after application
[9] = read-out: Herbicidal activity (% control), preemergence, dicots, 2 lb./A., average, about two weeks after application
[10] = read-out: Herbicidal activity (% control), preemergence, dicots, 4 lb./A., average, about two weeks after application
[11] = read-out: Herbicidal activity (% control), postemergence, dicots
[12] = read-out: Herbicidal activity (% control), preemergence, dicots

SMILES | activity at 2241.7 g/ha [1] | activity at 4483.4 g/ha [1] | activity at 2241.7 g/ha [2] | activity at 4483.4 g/ha [2] | Tolerance to rice [3] | activity at 2241.7 g/ha [4, 7] | activity at 4483.4 g/ha [4, 8] | activity at 2241.7 g/ha [5, 9] | activity at 4483.4 g/ha [5, 10] | activity at 2241.7 g/ha [4, 11] | activity at 4483.4 g/ha [4, 11] | activity at 2241.7 g/ha [5, 12] | activity at 4483.4 g/ha [5, 12] | Tolerance to peanuts [6]
CN(C)c1cc(Oc2ccc(C(F)(F)F)cc2Cl)ccc1[N+](=O)[O-] [Example 20, 2-chloro-α,α,α-trifluoro-p-tolyl-3-dimethylamino-4-nitrophenyl ether] | 80% | 88% | 80% | 78% | Tolerance (significant tolerance (as shown by 50% or less kill of the test crop at levels of application which give more than 50% kill of many or all of the weeds of Example 73)) | 97% | 88% | 93% | 99% |  |  |  |  | 
Nc1cc(Oc2ccc(C(F)(F)F)cc2Cl)ccc1[N+](=O)[O-] [Example 27] | 74% | 76% | 99% | 82% |  | 100% | 100% | 90% | 98% |  |  |  |  | 
O=[N+]([O-])c1ccc(Oc2ccc(C(F)(F)F)cc2Cl)cc1N1CCOCC1 [Example 28, 2-chloro-α,α,α-trifluoro-p-tolyl-3-morpholino-4-nitrophenyl ether] | 79% | 74% | 73% | 73% |  | 100% | 99% |  | 95% |  |  |  |  | 
C#CCCOc1cc(Oc2ccc(C(F)(F)F)cc2Cl)ccc1[N+](=O)[O-] [Example 29] | 66% | 74% | 97% | 79% |  | 100% | 100% | 84% | 73% |  |  |  |  | 
CC(=O)CCOc1cc(Oc2ccc(C(F)(F)F)cc2Cl)ccc1[N+](=O)[O-] [Example 31] | 68% | 74% | 68% | 61% |  | 100% | 100% | 69% | 99% |  |  |  |  | 
CC(=O)C(C)Oc1cc(Oc2ccc(C(F)(F)F)cc2Cl)ccc1[N+](=O)[O-] (stereo not drawn) [Example 32] | 81% | 86% | 100% | 86% |  |  | 100% |  | 100% |  |  |  |  | 
CNC(=O)Oc1cc(Oc2ccc(C(F)(F)F)cc2Cl)ccc1[N+](=O)[O-] [Example 33] | 79% | 53% | 65% | 32% |  |  |  |  |  | 100% | 98% | 74% | 99% | 
O=C(CCl)Nc1cc(Oc2ccc(C(F)(F)F)cc2Cl)ccc1[N+](=O)[O-] [Example 35, 2-chloro-α,α,α-trifluoro-p-tolyl-3-chloroacetamido-4-nitrophenyl ether] | 60% | 40% | 63% | 45% |  | 80% | 98% | 72% |  |  |  |  |  | 
O=[N+]([O-])c1ccc(Oc2ccc(C(F)(F)F)cc2Cl)cc1Cl [Example 37, 2-chloro-α,α,α-trifluoro-p-tolyl-3-chloro-4-nitrophenyl ether] | 100% | 99% | 100% | 92% |  |  | 100% |  | 100% |  |  |  |  | Tolerance (significant tolerance (as shown by 50% or less kill of the test crop at levels of application which give more than 50% kill of many or all of the weeds of Example 73))
O=[N+]([O-])c1ccc(Oc2ccc(C(F)(F)F)cc2Cl)cc1OCC1CO1 (stereo not drawn) [Example 38] | 62% | 47% | 51% | 43% |  | 58% | 98% | 68% | 86% |  |  |  |  | 
O=[N+]([O-])c1ccc(Oc2ccc(C(F)(F)F)cc2Cl)cc1OCC(O)CO (stereo not drawn) [Example 39, 2-chloro-α,α,α-trifluoro-p-tolyl-3-(2,3-dihydroxypropoxy)-4-nitrophenyl ether] | 77% | 65% | 61% | 64% |  | 100% | 98% | 80% | 99% |  |  |  |  | 
CCCN(CCC)c1cc(Oc2ccc(C(F)(F)F)cc2Cl)ccc1[N+](=O)[O-] [Example 41] | 84% | 60% | 56% | 71% |  | 94% | 95% | 62% | 96% |  |  |  |  | 
CS(=O)(=O)CCOc1cc(Oc2ccc(C(F)(F)F)cc2Cl)ccc1[N+](=O)[O-] [Example 42] | 83% | 62% | 63% | 38% |  | 88% | 98% | 60% | 80% |  |  |  |  | 
CN(CCO)c1cc(Oc2ccc(C(F)(F)F)cc2Cl)ccc1[N+](=O)[O-] [Example 43] | 99% | 0% | 61% | 2% |  | 80% | 47% | 100% | 48% |  |  |  |  | 
CNC(=O)Nc1cc(Oc2ccc(C(F)(F)F)cc2Cl)ccc1[N+](=O)[O-] [Example 44] | 0% | 66% | 7% | 60% |  | 10% | 98% | 17% | 96% |  |  |  |  | 
CCSC(=O)Nc1cc(Oc2ccc(C(F)(F)F)cc2Cl)ccc1[N+](=O)[O-] [Example 45] | 68% | 13% | 53% | 17% |  | 78% | 88% | 77% | 58% |  |  |  |  | 
CCSC(=O)N(C(=O)SCC)c1cc(Oc2ccc(C(F)(F)F)cc2Cl)ccc1[N+](=O)[O-] [Example 46] | 34% | 0% | 0% | 0% |  | 4% | 30% | 87% | 20% |  |  |  |  | 
N#Cc1cc(Oc2ccc(C(F)(F)F)cc2Cl)ccc1[N+](=O)[O-] [Example 47, 2-Chloro-α,α,α-trifluoro-p-tolyl-3-cyano-4-nitrophenyle ther] | 80% | 61% | 24% | 11% |  | 84% | 72% |  | 40% |  |  |  |  | 
CC(Oc1cc(Oc2ccc(C(F)(F)F)cc2Cl)ccc1[N+](=O)[O-])C(N)=O (stereo not drawn) [Example 51, 2-chloro-α,α,α-trifluoro-p-tolyl-3-(1-carbamoylethoxy)-4-nitrophenyl ether] | 96% | 79% | 86% | 75% |  | 98% | 100% | 100% | 100% |  |  |  |  | 
CCN(C(=O)NC)c1cc(Oc2ccc(C(F)(F)F)cc2Cl)ccc1[N+](=O)[O-] [Example 55, 2-Chloro-α,α,α-trifluoro-p-tolyl-3-(3-methyl-1-ethylureido)-4-nitrophenyl ether] |  | 91% | 31% | 69% |  | 96% | 95% |  | 73% |  |  |  |  | 
